# Source: ChEMBL document CHEMBL1201862, “PubChem BioAssay data set” (2004)
# The source made the active and inactive calls. Rule as the data show it: actives have a measured IC50 and inactives only a lower limit.
# Target: Envelope glycoprotein gp160 (Human immunodeficiency virus 1, UniProt Q6QLK5)
# Assay: cell-free HIV fusion peptide-binding blockers – biochemical, uHTS, fluorescence dequenching, […] (AID 1986)
# Sequence of Envelope glycoprotein gp160 (Q6QLK5 whole entry, the tested form may be a part): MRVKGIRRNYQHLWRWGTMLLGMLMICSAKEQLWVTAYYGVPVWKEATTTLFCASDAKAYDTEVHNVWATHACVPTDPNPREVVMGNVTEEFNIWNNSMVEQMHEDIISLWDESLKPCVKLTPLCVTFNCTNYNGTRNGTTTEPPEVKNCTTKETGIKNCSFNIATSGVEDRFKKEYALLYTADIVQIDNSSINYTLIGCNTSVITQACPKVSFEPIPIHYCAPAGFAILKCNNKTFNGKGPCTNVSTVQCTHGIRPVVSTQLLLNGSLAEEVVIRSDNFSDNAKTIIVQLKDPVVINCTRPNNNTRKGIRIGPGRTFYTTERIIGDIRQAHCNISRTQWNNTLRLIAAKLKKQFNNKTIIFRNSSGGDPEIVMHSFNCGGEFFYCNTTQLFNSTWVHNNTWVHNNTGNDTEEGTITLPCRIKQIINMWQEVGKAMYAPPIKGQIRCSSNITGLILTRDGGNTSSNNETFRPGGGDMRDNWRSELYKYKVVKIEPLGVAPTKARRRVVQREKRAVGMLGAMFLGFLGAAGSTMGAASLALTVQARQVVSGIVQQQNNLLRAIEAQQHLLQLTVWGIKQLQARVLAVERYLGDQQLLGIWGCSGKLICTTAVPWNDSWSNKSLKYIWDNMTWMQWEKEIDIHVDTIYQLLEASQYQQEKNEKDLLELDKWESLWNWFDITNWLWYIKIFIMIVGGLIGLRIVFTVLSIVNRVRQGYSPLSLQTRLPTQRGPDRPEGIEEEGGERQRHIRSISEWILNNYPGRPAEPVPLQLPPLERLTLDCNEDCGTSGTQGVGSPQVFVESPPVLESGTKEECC
row,Compound,IC50
1,O=C(CSc1nc2ccccc2c(=O)n1Cc1ccccc1)Nc1ccc(Br)cc1C(=O)O,14.4 µM (active)
2,Cc1ccc(F)c(NC(=O)/C(C#N)=C(\O)c2ccc(C(C)(C)C)cc2)c1,19.6 µM (active)
3,O=c1/c(=C\c2cc([N+](=O)[O-])cc([N+](=O)[O-])c2O)sc2nc3ccccc3n12,6.01 µM (active)
